What all share (format): biochemical
In one test the target is T1, Aurora2 kinase (Homo sapiens, UniProt O14965).
T1 construct: A complete recombinant Aurora2 enzyme; His tag (N); made in house; host or cells: E. coli
T1 sequence (O14965 1-403): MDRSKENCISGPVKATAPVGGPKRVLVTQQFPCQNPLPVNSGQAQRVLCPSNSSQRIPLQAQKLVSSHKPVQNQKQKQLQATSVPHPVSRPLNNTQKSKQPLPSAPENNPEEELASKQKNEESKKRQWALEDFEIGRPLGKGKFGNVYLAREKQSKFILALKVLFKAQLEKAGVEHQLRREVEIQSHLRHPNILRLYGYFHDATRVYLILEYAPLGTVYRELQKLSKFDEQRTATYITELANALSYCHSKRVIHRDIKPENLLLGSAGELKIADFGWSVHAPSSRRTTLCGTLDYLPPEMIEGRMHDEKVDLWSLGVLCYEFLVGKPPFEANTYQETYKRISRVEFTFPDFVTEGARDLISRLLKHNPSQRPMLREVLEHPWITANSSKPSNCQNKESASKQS
Description: Aurora2 kinase radioactivity scintillation assay using nickel chelate (NuMA substrate). As to conditions: 10 μM; read-out: Aurora2 % inhib at 10 μM. In a few lines:
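Read-out is 33P incorporation into His-NuMA (Q1687-H2101, 0.5 μM) captured on nickel chelate, after 30 min at 37 °C with 0.02 μM His-Aurora2 and 1 μM ATP. Expressed as percentage inhibition of uncompounded control activity, background subtracted.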

The next test concerns the target T2, human FAK (Homo sapiens, UniProt Q05397).
T2 construct: The complete cDNA of human FAK; made in house; host or cells: baculovirus expression system (vector pFastBac HTc)
Description: FAK autophosphorylation inhibition, time resolved fluorescence (HTRF) assay. The following applies: for inhibition at 30 µM: 30 μM (values marked *), read-out: FAK % inhib at 30* μM; for inhibition at 10 µM: 10 μM (values without asterisk), read-out: FAK % inhib at 10 μM. In a few lines:
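Autophosphorylation was detected by europium-cryptate anti-pTyr and XL665 anti-His energy transfer, percent inhibition from the 665/620 ratio relative to no-compound wells. Enzyme: His-FAK full length, 6.6 µg/ml, incubated 1 h at 37 °C, pH 7.2, 15 µM ATP.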
(TR-FRET usually uses a lanthanide donor and a delayed reading to cut background.)

Test [1] concerns the target T3, human IGF1R cytoplasmic domain (Homo sapiens, UniProt P08069).
T3 construct: The human IGF1R cytoplasmic domain was cloned; made in house; host or cells: SF21 insect cells (baculovirus)
Briefly: IGF1R autophosphorylation inhibition, time resolved fluorescence (HTRF) assay. The following applies: 10 μM; read-out: IGF1R % inhib at 10 μM. In a few lines:
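GST-tagged human IGF1R cytoplasmic domain from SF21 cells incubated with compound in 50 mM Hepes pH 7.5, 5 mM MnCl2, 50 mM NaCl, […] ATP. Autophosphorylation detected by HTRF (Eu-K anti-phosphotyrosine, XL665 anti-GST) after EDTA/KF stop; percentage inhibition versus no-compound control.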

T3 sequence (P08069 960-1367 limits assumed): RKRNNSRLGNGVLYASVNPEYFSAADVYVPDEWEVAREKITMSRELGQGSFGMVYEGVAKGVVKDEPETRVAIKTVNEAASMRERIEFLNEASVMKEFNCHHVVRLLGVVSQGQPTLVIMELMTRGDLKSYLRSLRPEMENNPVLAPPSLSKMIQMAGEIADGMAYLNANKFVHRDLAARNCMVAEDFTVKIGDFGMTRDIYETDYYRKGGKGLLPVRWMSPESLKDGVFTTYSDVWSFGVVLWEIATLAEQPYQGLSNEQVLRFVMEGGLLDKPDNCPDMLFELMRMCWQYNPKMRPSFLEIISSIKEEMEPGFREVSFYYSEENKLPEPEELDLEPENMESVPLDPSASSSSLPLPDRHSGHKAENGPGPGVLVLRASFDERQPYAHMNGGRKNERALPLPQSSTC
T2 sequence (Q05397 whole entry): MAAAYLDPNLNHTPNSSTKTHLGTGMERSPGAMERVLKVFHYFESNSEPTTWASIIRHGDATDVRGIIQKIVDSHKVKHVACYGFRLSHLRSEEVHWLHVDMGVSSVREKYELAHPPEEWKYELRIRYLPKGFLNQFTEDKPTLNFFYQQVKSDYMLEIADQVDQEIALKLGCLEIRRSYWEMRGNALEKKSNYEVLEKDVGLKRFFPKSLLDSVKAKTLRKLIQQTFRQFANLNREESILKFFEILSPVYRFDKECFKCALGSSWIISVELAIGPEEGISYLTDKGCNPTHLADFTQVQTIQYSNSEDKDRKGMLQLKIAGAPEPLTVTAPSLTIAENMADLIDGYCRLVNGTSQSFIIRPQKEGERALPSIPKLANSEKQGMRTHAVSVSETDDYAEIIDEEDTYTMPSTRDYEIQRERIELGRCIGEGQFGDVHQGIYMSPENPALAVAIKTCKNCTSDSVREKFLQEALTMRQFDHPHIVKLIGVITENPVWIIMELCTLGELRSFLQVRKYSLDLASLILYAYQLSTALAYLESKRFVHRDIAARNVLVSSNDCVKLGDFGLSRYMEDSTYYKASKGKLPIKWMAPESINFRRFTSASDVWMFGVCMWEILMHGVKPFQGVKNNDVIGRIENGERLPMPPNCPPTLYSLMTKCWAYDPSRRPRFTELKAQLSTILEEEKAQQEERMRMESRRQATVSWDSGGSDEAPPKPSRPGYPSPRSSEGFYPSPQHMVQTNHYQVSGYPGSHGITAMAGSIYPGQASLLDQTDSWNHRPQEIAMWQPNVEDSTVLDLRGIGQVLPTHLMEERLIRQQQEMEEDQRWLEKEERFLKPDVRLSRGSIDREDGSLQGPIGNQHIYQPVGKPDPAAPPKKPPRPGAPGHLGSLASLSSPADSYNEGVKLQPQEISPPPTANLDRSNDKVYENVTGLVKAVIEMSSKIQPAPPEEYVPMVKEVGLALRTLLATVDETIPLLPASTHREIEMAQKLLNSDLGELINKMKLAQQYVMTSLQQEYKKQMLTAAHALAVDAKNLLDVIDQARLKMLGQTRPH

`CS(=O)(=O)c1ccccc1S(=O)(=O)Nc1ccc2[nH]nc(Cl)c2c1` [Example 1, N-(3-Chloro-1H-indazol-5-yl)-2-methylsulfonylbenzenesulfonamide]: on Aurora2 kinase, the inhibition at 10 µM was 86%. On human FAK, the inhibition at 30 µM amounted to 70%.

As for `O=S(=O)(Nc1ccc2[nH]nc(Cl)c2c1)c1cccc(F)c1` [Example 3, N-(3-Chloro-1H-indazol-5-yl)-3-fluorobenzenesulfonamide], the inhibition at 10 µM at Aurora2 kinase amounted to 46%. For the same compound, the inhibition at 30 µM on human FAK came to 71%.

In the case of `O=S(=O)(Nc1ccc2[nH]nc(-c3ccccc3)c2c1)c1cccc(F)c1` [Example 6, 3-Fluoro-N-(3-phenyl-1H-indazol-5-yl)benzenesulfonamide], the inhibition at 10 µM at Aurora2 kinase is 95%; at human FAK, 82%.

On to `CS(=O)(=O)c1ccccc1S(=O)(=O)Nc1ccc2[nH]nc(-c3ccccc3)c2c1` [Example 7, 2-Methylsulfonyl-N-(3-phenyl-1H-indazol-5-yl)benzenesulfonamide], for which the results for the inhibition at 10 µM at Aurora2 kinase and on human FAK were 97% and 89%, respectively.

Consider `O=S(=O)(Nc1ccc2[nH]nc(-c3ccccc3)c2c1)c1ccc(Cl)c(Cl)c1` [Example 8, 3,4-Dichloro-N-(3-phenyl-1H-indazol-5-yl)benzenesulfonamide], for which, on Aurora2 kinase, the inhibition at 10 µM amounted to 59%. Besides, the inhibition at 30 µM on human FAK worked out at 76%.

On to `Cc1n[nH]c2ccc(NS(=O)(=O)c3cccc(F)c3)cc12` [Example 9, 3-Fluoro-N-(3-methyl-1H-indazol-5-yl)benzenesulfonamide], for which the inhibition at 10 µM on Aurora2 kinase came out at 61%. The inhibition at 30 µM on human FAK worked out at 68%.

For `Cc1n[nH]c2ccc(NS(=O)(=O)c3ccccc3S(C)(=O)=O)cc12` [Example 10, 2-Methylsulfonyl-N-(3-methyl-1H-indazol-5-yl)benzenesulfonamide], at Aurora2 kinase, the inhibition at 10 µM stood at 90%. Further, the inhibition at 30 µM at human FAK came to 66%.

With `CS(=O)(=O)c1ccccc1S(=O)(=O)Nc1ccc2[nH]ncc2c1` [Example 13, 2-Methylsulfonyl-N-(1H-indazol-5-yl)benzenesulfonamide], the inhibition at 10 µM on Aurora2 kinase worked out at 76%. In addition, the inhibition at 30 µM at human FAK is 83%.

In the case of `Nc1n[nH]c2ccc(NS(=O)(=O)c3cccc(F)c3)cc12` [Example 26, N-(3-Amino-1H-indazol-5-yl)-3-fluorobenzenesulfonamide], the inhibition at 10 µM was found to be 95% at Aurora2 kinase, 34% in test [1] and 96% at human FAK.

Regarding `CS(=O)(=O)c1ccccc1S(=O)(=O)Nc1ccc2[nH]nc(-c3ccc(Cl)cc3)c2c1` [Example 30, N-[3-(4-Chlorophenyl)-1H-indazol-5-yl]-2-methylsulfonylbenzenesulfonamide], the inhibition at 10 µM was determined as 100% at Aurora2 kinase, 96% in test [1] and 88% at human FAK.

`COc1ccc(-c2n[nH]c3ccc(NS(=O)(=O)c4ccccc4S(C)(=O)=O)cc23)cc1` [Example 32, N-[3-(4-Methoxyphenyl)-1H-indazol-5-yl]-2-methylsulfonylbenzenesulfonamide]: the inhibition at 10 µM at Aurora2 kinase is 92%; in test [1] it was 93%; at human FAK it was 97%.

For the compound `CS(=O)(=O)c1ccccc1S(=O)(=O)Nc1ccc2[nH]nc(-c3ccc(F)cc3)c2c1` [Example 33, N-[3-(4-Fluorophenyl)-1H-indazol-5-yl]-2-methylsulfonylbenzenesulfonamide], the inhibition at 10 µM at Aurora2 kinase came to 89%; in test [1], 94%; at human FAK, 94%.

For the compound `CS(=O)(=O)c1ccccc1S(=O)(=O)Nc1ccc2[nH]nc(NCc3ccccc3)c2c1` [Example 36, N-(3-Benzylamino-1H-indazol-5-yl)-2-methylsulfonylbenzenesulfonamide], the inhibition at 10 µM at Aurora2 kinase worked out at 80%; in test [1], 92%; on human FAK, 92%.

Regarding `CNc1n[nH]c2ccc(NS(=O)(=O)c3ccccc3S(C)(=O)=O)cc12` [Example 37, N-(3-Methylamino-1H-indazol-5-yl)-2-methylsulfonylbenzenesulfonamide], the inhibition at 10 µM was 36% on Aurora2 kinase, 51% in test [1] and 67% at human FAK.

Turning to `CS(=O)(=O)c1ccccc1S(=O)(=O)Nc1ccc2[nH]nc(N)c2c1` [Example 39, N-(3-Amino-1H-indazol-5-yl)-2-methylsulfonylbenzenesulfonamide], the inhibition at 10 µM on Aurora2 kinase stood at 81%; in test [1], 72%; on human FAK, 96%.

Turning to `Nc1n[nH]c2ccc(NS(=O)(=O)c3c(F)cccc3F)cc12` [Example 40, N-(3-Amino-1H-indazol-5-yl)-2,6-difluorobenzenesulfonamide], the figures for the inhibition at 10 µM (at Aurora2 kinase; in test [1]; at human FAK) were 70%, 12% and 55%, respectively.

`Nc1n[nH]c2ccc(NS(=O)(=O)c3c(Cl)cccc3Cl)cc12` [Example 41, N-(3-Amino-1H-indazol-5-yl)-2,6-dichlorobenzenesulfonamide]: the inhibition at 10 µM at Aurora2 kinase came out at 90%; in test [1], 18%; on human FAK, 71%.

Turning to `Nc1n[nH]c2ccc(NS(=O)(=O)c3cc(F)cc(F)c3)cc12` [Example 42, N-(3-Amino-1H-indazol-5-yl)-3,5-difluorobenzenesulfonamide], the inhibition at 10 µM at Aurora2 kinase worked out at 50%; in test [1], 0%; on human FAK it was 100%.

For the compound `CS(=O)(=O)c1ccccc1S(=O)(=O)Nc1ccc2[nH]nc(-c3ccoc3)c2c1` [Example 52, N-(3-Furan-3-yl-1H-indazol-5-yl)-2-methylsulfonylbenzenesulfonamide], the inhibition at 10 µM at Aurora2 kinase was 84%; in test [1], 80%; on human FAK, 93%.

In the case of `CS(=O)(=O)c1ccccc1S(=O)(=O)Nc1ccc2[nH]nc(-c3ccco3)c2c1` [Example 53, N-(3-Furan-2-yl-1H-indazol-5-yl)-2-methylsulfonylbenzenesulfonamide], the inhibition at 10 µM on Aurora2 kinase came to 91%; in test [1], 76%; on human FAK it was 96%.

As for `CS(=O)(=O)c1ccccc1S(=O)(=O)Nc1ccc2[nH]nc(-c3ccncc3)c2c1` [Example 54, 2-Methylsulfonyl-N-(3-pyridin-4-yl-1H-indazol-5-yl)benzenesulfonamide], the inhibition at 10 µM worked out at 100% at Aurora2 kinase, 87% in test [1] and 96% on human FAK.

For the compound `COC(=O)c1cccc(-c2n[nH]c3ccc(NS(=O)(=O)c4ccccc4S(C)(=O)=O)cc23)c1` [Example 55, Methyl 3-[5-(2-methylsulfonylbenzenesulfonamino)-1H-indazol-3-yl]benzoate], the inhibition at 10 µM on Aurora2 kinase was 94%; in test [1] it was 64%; on human FAK, 98%.

In the case of `CS(=O)(=O)c1ccccc1S(=O)(=O)Nc1ccc2[nH]nc(-c3ccc[nH]3)c2c1` [Example 60, 2-Methylsulfonyl-N-[3-(1H-pyrrol-2-yl)-1H-indazol-5-yl]benzenesulfonamide], the inhibition at 10 µM came to 100% on Aurora2 kinase, 99% in test [1] and 99% at human FAK.

In the case of `CS(=O)(=O)c1ccccc1S(=O)(=O)Nc1ccc2[nH]nc(-c3cc4ccccc4[nH]3)c2c1` [Example 61, N-[3-(1H-Indol-2-yl)-1H-indazol-5-yl]-2-methylsulfonylbenzenesulfonamide], the inhibition at 10 µM was found to be 100% at Aurora2 kinase, 99% in test [1] and 99% at human FAK.

Regarding `CS(=O)(=O)c1ccccc1S(=O)(=O)Nc1ccc2[nH]nc(-c3cccc(N)c3)c2c1` [Example 62, N-[3-(3-Aminophenyl)-1H-indazol-5-yl]-2-methylsulfonylbenzenesulfonamide], the figures for the inhibition at 10 µM (on Aurora2 kinase; in test [1]; on human FAK) were 100%, 88% and 99%, respectively.

For the compound `CN(C)c1ccc(-c2n[nH]c3ccc(NS(=O)(=O)c4ccccc4S(C)(=O)=O)cc23)cc1` [Example 63, N-[3-(4-Dimethylaminophenyl)-1H-indazol-5-yl]-2-methylsulfonylbenzenesulfonamide], the inhibition at 10 µM at Aurora2 kinase was 100%; in test [1] it was 81%; on human FAK it was 94%.

The values are drawn from patent publication US6858638B2, “Substituted indazoles, compositions containing them, method of production and use” (Aventis Pharma S.A., priority 2002, dated 2005).
